From patent US20260327191A1, “GSK3a INHIBITORS AND METHODS OF USE THEREOF” (Blueprint Medicines Corporation, priority 2023, published 2026)

Key:
human GSK3α = biological target: T1, human GSK3α (Homo sapiens, UniProt P49840); assay: In vitro enzymatic activity assay, GSK3α; assay type: biochemical; details: 1.0 mM ATP, 1.0 μM peptide substrate, 120 min, 25° C, read-out: Enzyme GSK3α (IC50)
T1 construct: Full length human GSK3α or GSK3B expressed as N-terminal GST fusion proteins; GST (N); purchased Carna Biosciences (Japan); host or cells: baculovirus host
Protocol: (§1) Full length human GSK3α or GSK3B expressed as N-terminal GST fusion proteins in baculovirus host were purchased from Carna Biosciences (Japan). The kinase was pre-incubated with ATP (adenosine-5′-triphosphate) for 45 min, then incubated with tested compounds for another 45 min in assay buffer that contains 100 mM HEPES (N-2-hydroxyethylpiperazine-N′-2-ethanesulfonic acid), pH 7.5, 10 mM MgCl2, 1.0 mM DTT, and 0.015% Briji-35. […] Percent inhibition was plotted against compound concentration to generate 10-point dose response curve with 3-fold serial dilution starting from 10 μM. IC50 value was determined from the 4-parameter logistic curve fitting.

GSK3A = biological target: T2, GSK3A (Homo sapiens, UniProt P49840); assay: NanoBRET cellular target engagement assay, Nanoluc-GSK3A in HEK293 cells; assay type: cell-based; details: NanoBRET GSK3α IC50, HEK293 cells, tracer K-8, 2 hours, 37° C
T2 construct: expressed in transfected cells
Protocol: (§2) In the assay, HEK293 cells stably expressing either Nanoluc-GSK3A or Nanoluc-GSK3B were maintained in culture media and seeded, using a multidrop dispenser, at a density of 5×10^3 cells per well in 384-well white plates with 100 ng/ml doxycycline (Sigma) overnight.
(§3) Compound was first diluted in DMSO to generate a 9-point serial dilution then diluted to 10× final concentration in Opti-MEM™ (Gibco). After overnight incubation, cell medium was aspirated from the seeded cells using a microplate automatic washer, then 27 μL of pre-warmed Opti-MEM™ with kinase tracer (K-8) and 3 μL of Opti-MEM™ diluted DMSO or compounds were added per well. Plates were protected from light, mixed in an orbital shaker for 3 min at RT and incubated at 37° C., 5% CO2 in a humidified incubator for 2 hours. After acclimation at RT for 15 min, 15 μL of 3× complete NanoBRET™ Nano-Glo Substrate/Inhibitor (Promega) was added per well. Plates were mixed in an orbital shaker for 3 min at RT and incubated for an additional 30 min. Donor emission at 460 nm and acceptor emission at 647 nm were measured in EnVision multilabel plate reader (Perkin Elmer).

GSK3B [1] = biological target: T3, GSK3B (Homo sapiens, UniProt P49841); assay: NanoBRET cellular target engagement assay, Nanoluc-GSK3B in HEK293 cells; assay type: cell-based; set-up: expressed in transfected cells; details: NanoBRET GSK3β IC50, HEK293 cells, tracer K-8, 2 hours, 37° C
Protocol: as §2, §3

GSK3B [2] = biological target: T3, GSK3B; assay: In vitro enzymatic activity assay, GSK3β; assay type: biochemical; set-up: Full length human GSK3α or GSK3B expressed as N-terminal GST fusion proteins; GST (N); purchased Carna Biosciences (Japan); host or cells: baculovirus host; details: 1.0 mM ATP, 1.0 μM peptide substrate, 120 min, 25° C, read-out: Enzyme GSK3β (IC50)
Protocol: as §1

T2 sequence (P49840 whole entry): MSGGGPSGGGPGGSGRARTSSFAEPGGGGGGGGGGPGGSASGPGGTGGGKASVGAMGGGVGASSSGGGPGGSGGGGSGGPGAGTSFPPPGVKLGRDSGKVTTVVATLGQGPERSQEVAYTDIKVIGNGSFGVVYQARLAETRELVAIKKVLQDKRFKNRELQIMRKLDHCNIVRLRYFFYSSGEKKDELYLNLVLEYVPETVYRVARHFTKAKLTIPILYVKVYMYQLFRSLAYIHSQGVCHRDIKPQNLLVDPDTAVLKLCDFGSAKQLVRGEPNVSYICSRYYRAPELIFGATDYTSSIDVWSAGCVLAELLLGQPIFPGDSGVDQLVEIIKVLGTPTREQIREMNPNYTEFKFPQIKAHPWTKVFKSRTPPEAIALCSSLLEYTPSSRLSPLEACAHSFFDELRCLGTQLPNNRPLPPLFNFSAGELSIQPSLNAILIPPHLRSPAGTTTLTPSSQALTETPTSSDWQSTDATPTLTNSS
T1 sequence (P49840 whole entry, the tested form may be a part): as the sequence (P49840 whole entry) above
T3 sequence (P49841 whole entry): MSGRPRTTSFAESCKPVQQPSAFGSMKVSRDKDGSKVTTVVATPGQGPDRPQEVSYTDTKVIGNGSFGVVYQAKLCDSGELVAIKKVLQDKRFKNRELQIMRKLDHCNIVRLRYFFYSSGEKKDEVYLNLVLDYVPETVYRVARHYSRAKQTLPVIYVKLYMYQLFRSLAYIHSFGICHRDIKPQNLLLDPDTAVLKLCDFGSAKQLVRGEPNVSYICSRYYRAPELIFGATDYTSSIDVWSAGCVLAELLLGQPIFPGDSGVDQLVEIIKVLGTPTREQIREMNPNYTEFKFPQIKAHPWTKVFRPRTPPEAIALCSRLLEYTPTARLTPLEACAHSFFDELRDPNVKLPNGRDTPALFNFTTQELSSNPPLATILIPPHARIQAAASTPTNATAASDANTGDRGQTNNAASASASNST

SMILES | IC50 (human GSK3α) [nM] | IC50 (GSK3A) [nM] | IC50 (GSK3B [1]) [nM] | IC50 (GSK3B [2]) [nM]
COc1cc(Cl)c(-n2cnc(N)c(C(=O)Nc3cncc([C@@H]4NC[C@H]5CCC[C@H]54)c3)c2=O)c(Cl)c1 (single isomer, unassigned) [Example 32, 4-amino-1-(2,6-dichloro-4-methoxyphenyl)-N-(5-((1R,3aS,6aR)-octahydrocyclopenta[c]pyrrol-1-yl)pyridin-3-yl)-6-oxo-1,6-dihydropyrimidine-5-carboxamide or 4-amino-1-(2,6-dichloro-4-methoxyphenyl)-N-(5-((1S,3aR,6aS)-octahydrocyclopenta[c]pyrrol-1-yl)pyridin-3-yl)-6-oxo-1,6-dihydropyrimidine-5-carboxamide] | 6.3 | 2.6 | 158 | 269
CCC(N)c1cncc(NC(=O)c2c(N)ncn(-c3c(C)cc(COC)cc3C)c2=O)c1 (single isomer, unassigned) [Example 35, (R)-4-amino-N-(5-(1-aminopropyl)pyridin-3-yl)-1-(4-(methoxymethyl)-2,6-dimethylphenyl)-6-oxo-1,6-dihydropyrimidine-5-carboxamide or (S)-4-amino-N-(5-(1-aminopropyl)pyridin-3-yl)-1-(4-(methoxymethyl)-2,6-dimethylphenyl)-6-oxo-1,6-dihydropyrimidine-5-carboxamide] | 14.7 | 6.2 | 412 | 693
Cc1cc(C#N)cc(Cl)c1-n1cnc(N)c(C(=O)Nc2cccc([C@@H]3CCCCN3)c2)c1=O (single isomer, unassigned) [Example 41, (S)-4-amino-1-((S)-2-chloro-4-cyano-6-methylphenyl)-6-oxo-N-(3-(piperidin-2-yl)phenyl)-1,6-dihydropyrimidine-5-carboxamide or (R)-4-amino-1-((S)-2-chloro-4-cyano-6-methylphenyl)-6-oxo-N-(3-(piperidin-2-yl)phenyl)-1,6-dihydropyrimidine-5-carboxamide] | 12.1 | 5.9 | 386 | 605
C[C@H](N)c1cncc(NC(=O)c2c(N)ncn(-c3c(Cl)cc(C#N)cc3Cl)c2=O)c1 (single isomer, unassigned) [Example 43, (S)-4-amino-N-(5-(1-aminoethyl)pyridin-3-yl)-1-(2,6-dichloro-4-cyanophenyl)-6-oxo-1,6-dihydropyrimidine-5-carboxamide or (R)-4-amino-N-(5-(1-aminoethyl)pyridin-3-yl)-1-(2,6-dichloro-4-cyanophenyl)-6-oxo-1,6-dihydropyrimidine-5-carboxamide] | 4.9 | 5.4 | 285 | 283
C[C@@H](N)c1cncc(NC(=O)c2c(N)ncn(-c3c(Cl)cc(Cl)cc3Cl)c2=O)c1 (single isomer, unassigned) [Example 50, (R)-4-amino-N-(5-(1-aminoethyl)pyridin-3-yl)-6-oxo-1-(2,4,6-trichlorophenyl)-1,6-dihydropyrimidine-5-carboxamide or (S)-4-amino-N-(5-(1-aminoethyl)pyridin-3-yl)-6-oxo-1-(2,4,6-trichlorophenyl)-1,6-dihydropyrimidine-5-carboxamide] | 16.5 | 7.4 | 439 | 708
COc1cc(C)c(-n2cnc(N)c(C(=O)Nc3cncc(C4CCCCCN4)c3)c2=O)c(C)c1 (single isomer, unassigned) [Example 53, (R)-4-amino-N-(5-(azepan-2-yl)pyridin-3-yl)-1-(4-methoxy-2,6-dimethylphenyl)-6-oxo-1,6-dihydropyrimidine-5-carboxamide or (S)-4-amino-N-(5-(azepan-2-yl)pyridin-3-yl)-1-(4-methoxy-2,6-dimethylphenyl)-6-oxo-1,6-dihydropyrimidine-5-carboxamide] | 12.9 | 6.8 | 356 | 625
C[C@@H](N)c1cncc(NC(=O)c2c(N)ncn(-c3c(Cl)cc(C(F)F)cc3Cl)c2=O)c1 (single isomer, unassigned) [Example 57, (R)-4-amino-N-(5-(1-aminoethyl)pyridin-3-yl)-1-(2,6-dichloro-4-(difluoromethyl)phenyl)-6-oxo-1,6-dihydropyrimidine-5-carboxamide or (S)-4-amino-N-(5-(1-aminoethyl)pyridin-3-yl)-1-(2,6-dichloro-4-(difluoromethyl)phenyl)-6-oxo-1,6-dihydropyrimidine-5-carboxamide] | 7.9 | 5.4 | 277 | 382

Now those with a lower IC50 (human GSK3α), led by results:

IC50 (human GSK3α) [nM] | IC50 (GSK3A) [nM] | IC50 (GSK3B [1]) [nM] | IC50 (GSK3B [2]) [nM] | SMILES
4.7 | 7.6 | 518 | 382 | COC[C@@H](N)c1cncc(NC(=O)c2c(N)ncn(-c3c(Cl)cc(C#N)cc3Cl)c2=O)c1 (single isomer, unassigned) [Example 44, (S)-4-amino-N-(5-(1-amino-2-methoxyethyl)pyridin-3-yl)-1-(2,6-dichloro-4-cyanophenyl)-6-oxo-1,6-dihydropyrimidine-5-carboxamide or (R)-4-amino-N-(5-(1-amino-2-methoxyethyl)pyridin-3-yl)-1-(2,6-dichloro-4-cyanophenyl)-6-oxo-1,6-dihydropyrimidine-5-carboxamide]
3.2 | 2.9 | 174 | 227 | COC[C@H](N)c1cncc(NC(=O)c2c(N)ncn(-c3c(Cl)cc(OC(F)F)cc3Cl)c2=O)c1 (single isomer, unassigned) [Example 47, (R)-4-amino-N-(5-(1-amino-2-methoxyethyl)pyridin-3-yl)-1-(2,6-dichloro-4-(difluoromethoxy)phenyl)-6-oxo-1,6-dihydropyrimidine-5-carboxamide or (S)-4-amino-N-(5-(1-amino-2-methoxyethyl)pyridin-3-yl)-1-(2,6-dichloro-4-(difluoromethoxy)phenyl)-6-oxo-1,6-dihydropyrimidine-5-carboxamide]
3.1 | 2.5 | 187 | 224 | Nc1ncn(-c2c(Cl)cc(C(F)F)cc2Cl)c(=O)c1C(=O)Nc1cncc([C@@H]2COCCCN2)c1 (single isomer, unassigned) [Example 59, (R)-N-(5-(1,4-oxazepan-3-yl)pyridin-3-yl)-4-amino-1-(2,6-dichloro-4-(difluoromethyl)phenyl)-6-oxo-1,6-dihydropyrimidine-5-carboxamide or (S)-N-(5-(1,4-oxazepan-3-yl)pyridin-3-yl)-4-amino-1-(2,6-dichloro-4-(difluoromethyl)phenyl)-6-oxo-1,6-dihydropyrimidine-5-carboxamide]
2.8 | 2.2 | 124 | 142 | C[C@@H](N)c1cncc(NC(=O)c2c(N)ncn(-c3c(Cl)cc(OC4CC4)cc3Cl)c2=O)c1 (single isomer, unassigned) [Example 51, (R)-4-amino-N-(5-(1-aminoethyl)pyridin-3-yl)-1-(2,6-dichloro-4-cyclopropoxyphenyl)-6-oxo-1,6-dihydropyrimidine-5-carboxamide or (S)-4-amino-N-(5-(1-aminoethyl)pyridin-3-yl)-1-(2,6-dichloro-4-cyclopropoxyphenyl)-6-oxo-1,6-dihydropyrimidine-5-carboxamide]
2.5 | 2.8 | 144 | 161 | COCC(N)c1cncc(NC(=O)c2c(N)ncn(-c3c(Cl)cc(Cl)cc3Cl)c2=O)c1 (single isomer, unassigned) [Example 49, (R)-4-amino-N-(5-(1-amino-2-methoxyethyl)pyridin-3-yl)-6-oxo-1-(2,4,6-trichlorophenyl)-1,6-dihydropyrimidine-5-carboxamide or (S)-4-amino-N-(5-(1-amino-2-methoxyethyl)pyridin-3-yl)-6-oxo-1-(2,4,6-trichlorophenyl)-1,6-dihydropyrimidine-5-carboxamide]
